The numbers were not newly measured in patent publication US20120077687A1, “PROGNOSTIC AND PREDICTIVE GENE SIGNATURE FOR NON-SMALL CELL LUNG CANCER AND ADJUVANT CHEMOTHERAPY” (priority 2010, published 2012), which cites them from elsewhere.

Series [1] deals with non-small cell lung cancer (NSCLC) patients. The following applies: for HR (survival): LACE meta-analysis.
In a further series the test system is stage IB NSCLC patients. The settings on record: 344 stage IB patients, chemotherapy vs observation.

Read-outs that look alike come from different tables or passages of the source.

Consider `N.N.[Cl][Pt][Cl]` [cisplatin], for which the “5-year survival advantage conferred by adjuvant chemotherapy” value in series [1] (ANITA trial, 840 stage IB-IIIA patients) is 9%; in series [1] (IALT, 1,867 stage I-III patients), 4%; in series [1] (NCIC CTG BR.10 Trial, 483 stage IB-II patients) it was 15%. The “absolute survival advantage at 5-year” value in series [1] (LACE meta-analysis of 5 cisplatin-based trials) is reported as 5.3%. Besides, the “HR (survival)” value in series [1] (all patients, 95% CI 0.82-0.96, p=0.004) is listed as 0.89; in series [1] (stage IA patients, 95% CI 0.96-2.09, detriment suggested), 1.41; in series [1] (stage IB patients, 95% CI 0.78-1.10, no significant benefit), 0.92.
Take carboplatin and paclitaxel: in the series on stage IB NSCLC patients (p=0.065), the “HR, disease-free survival” value was 0.80. The “HR, overall survival” value in the series on stage IB NSCLC patients (p=0.12) was 0.83.
